Assay results taken from PubChem BioAssay (NCI).
“And” between values parts separate entries of the source, which are not always exact repeats. Equal entries are not always repeated.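 Method: 48-hour compound exposure of cells in 96-well plates, five concentrations, linear interpolation of endpoints. Here, GI50 denotes the concentration required for 50% inhibition of growth. At the TGI there is no net growth.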

Tests used:
Test in all cases: inhibition of tumour cell growth, NCI panel, 48 h
A498 renal = tested on: A498 renal
A549 NSCLC = tested on: A549 NSCLC
DLD-1 colon = tested on: DLD-1 colon
DMS 273 small cell lung = tested on: DMS 273 small cell lung
HL-60(TB) leukemia = tested on: HL-60(TB) leukemia
HT29 colon = tested on: HT29 colon
M19-MEL melanoma = tested on: M19-MEL melanoma
NCI-H460 lung = tested on: NCI-H460 lung
SK-MEL-2 melanoma = tested on: SK-MEL-2 melanoma
SNB-75 CNS = tested on: SNB-75 CNS

SMILES | TGI (A498 renal) | TGI (A549 NSCLC) | TGI (DLD-1 colon) | TGI (DMS 273 small cell lung) | TGI (HL-60(TB) leukemia) | TGI (HT29 colon) | TGI (M19-MEL melanoma) | TGI (NCI-H460 lung) | TGI (SK-MEL-2 melanoma) | GI50 (A498 renal) | GI50 (A549 NSCLC) | GI50 (HL-60(TB) leukemia) | GI50 (HT29 colon) | GI50 (NCI-H460 lung) | GI50 (SK-MEL-2 melanoma) | GI50 (SNB-75 CNS) | TGI (SNB-75 CNS) | GI50 (DLD-1 colon) | GI50 (DMS 273 small cell lung) | GI50 (M19-MEL melanoma)
O=C(O)CN(c1ccccc1)S(=O)(=O)c1ccc([N+](=O)[O-])cc1 | > 100 µM | > 100 µM | > 100 µM | > 100 µM | > 100 µM | > 100 µM | > 100 µM | > 100 µM | > 100 µM |  |  |  |  |  |  |  |  |  |  | 
Cn1c(=O)c2c(ncn2CC(=O)Nc2ccc(-c3ccccc3)nn2)n(C)c1=O | > 100 µM | > 100 µM |  |  | > 100 µM | > 100 µM |  | > 100 µM | > 100 µM | 54.1 µM | > 100 µM | 49.9 µM | > 100 µM | > 100 µM | > 100 µM | > 100 µM | > 100 µM |  |  | 
N.N.NCCCCCCCCCN.O=C([O-])CC(=O)[O-].O=C([O-])CC(=O)[O-].[Pt+4].[Pt+4] | > 100 µM | > 100 µM | > 100 µM | > 100 µM | > 100 µM | > 100 µM |  | > 100 µM | > 100 µM | > 100 µM | > 100 µM | 13.4 µM | > 100 µM | 25.8 µM | > 100 µM | > 100 µM | > 100 µM | > 100 µM | > 100 µM | 
CN(C)CCSc1nccc(-c2cc3ccccc3s2)n1 | 58.3 µM | 36.6 µM | > 100 µM | 34.1 µM |  | 24.3 µM |  | 28 µM | 33.5 µM |  |  |  |  |  |  |  | > 100 µM |  |  | 
C[C@]12CC[C@@H]3c4ccc(O)c([N+](=O)[O-])c4CC[C@H]3[C@@H]1CC[C@@H]2NS(=O)(=O)c1cccc(Br)c1 | 5.87 µM | 8.89 µM |  |  | 6.04 µM | 3.92 µM |  | 3.56 µM | 5.34 µM | 2.06 µM | 2.81 µM | 2.4 µM | 1.94 µM | 1.81 µM | 2.35 µM | 1.19 µM | 2.7 µM |  |  | 
CCCCc1c2c(nc3c1CCC/C3=C\c1ccccc1)/C(=C/c1ccccc1)CCC2 |  | > 100 µM |  | > 100 µM | > 100 µM | > 100 µM | > 100 µM | > 100 µM |  |  |  |  |  |  |  |  |  |  |  | 
CCOc1ccccc1NC(=O)C(=O)Cc1nc2ccccc2s1 | > 100 µM | > 100 µM | > 100 µM | > 100 µM | > 100 µM | > 100 µM | > 100 µM | > 100 µM | > 100 µM |  |  |  |  |  |  |  | > 100 µM |  |  | 
CC1CN1c1c(C(=O)/C=C/c2ccc(Cl)cc2)c(-c2ccccc2)nn(C)c1=O (stereo unspecified) | > 10 µM | > 10 µM | 3.45 µM | 6.29 µM | 5.22 µM | > 10 µM | > 10 µM | 4.12 µM | 5.8 µM |  |  |  |  |  |  |  | 8.28 µM |  |  | 
COc1ccc2c3c(Nc4ccc(/C(C)=N/O)cc4)[nH]c4ccccc4c-3c(N=O)c2c1 | 27.2 µM | 6.08 µM |  |  | 3.06 µM | 33.7 µM |  | > 100 µM | 40.6 µM | 12.9 µM | 1.45 µM | 1.26 µM | 19.6 µM | 29.5 µM | 18.4 µM | 44.9 µM | 75.3 µM |  |  | 
COc1ccc2c(Oc3ccc(NC(=O)c4c(C)n(CC(C)(C)O)n(-c5ccccc5)c4=O)nc3)ccnc2c1 | 85.1 µM | > 100 µM |  |  | > 62.3 µM | > 91.1 µM |  | > 100 µM | 49.4 µM | 4.41 µM | 20.3 µM | 14.6 µM | 21.6 µM | 13.6 µM | 13.3 µM | 5.53 µM | 71.1 µM |  |  | 
CC(=O)OC1C2CCC1C1C2C2(Cl)C(Cl)=C(Cl)C1(Cl)C2(Cl)Cl (stereo unspecified) | 27 µM | 25.9 µM | 33.3 µM | 25.4 µM |  | 28 µM | 27.7 µM | 27.4 µM | 22.2 µM |  |  |  |  |  |  |  | 29.8 µM |  |  | 
COC(C(=O)[C@@H](O)[C@@H](C)O)[C@@H]1Cc2cc3cc(O[C@H]4C[C@@H](O[C@H]5C[C@@H](O)[C@H](O)C(C)O5)[C@H](O)C(C)O4)c(C)c(O)c3c(O)c2C(=O)[C@H]1O[C@H]1C[C@@H](O[C@H]2C[C@@H](O[C@H]3C[C@@H](O)[C@H](OC)C(C)O3)[C@@H](O)C(C)O2)[C@H](O)C(C)O1 (stereo partly specified) | 0.0224 µM | > 33.3 µM |  |  | 0.767 µM | 0.131 µM |  | > 33.3 µM | 0.0392 µM | 0.00614 µM |  | 0.0651 µM |  | 0.0132 µM |  |  | 0.23 µM |  |  | 
[F][Sn]([F])([c]1ccccc1)[c]1ccccc1 |  | 6.45 µM | 3.47 µM | 5.26 µM | 3.07 µM | 3.85 µM | 6.2 µM | 4.97 µM | 3.43 µM |  | 2.33 µM | 1.01 µM | 1.78 µM | 2.27 µM | 1.91 µM | 1.7 µM | 4.61 µM | 1.88 µM | 2.17 µM | 2.35 µM
O=C(OCc1ccc2c(Cl)cc(Cl)c(O)c2n1)N1CCN(C(=O)c2cc3cc(F)ccc3[nH]2)CC1 | 5.48 µM | > 100 µM |  |  | 3.53 µM | > 100 µM |  | > 100 µM | > 100 µM | 0.504 µM | 7.03 µM | 1.06 µM | 62.7 µM | 0.918 µM | 3.23 µM | 2.85 µM | > 100 µM |  |  | 
C/C(=N\NC(=S)N1CC2CCC(CC2)C1)c1ccccn1 | 1.91 µM | 1.66 µM |  |  | 1.21 µM | 1.67 µM |  | 1.37 µM | 1.99 µM | 0.416 µM | 0.064 µM | 0.0482 µM | < 0.014 µM | 0.044 µM | 0.419 µM | 0.643 µM | 2.07 µM |  |  | 
CCCCCCCCCCCCOC1C(C(CC(=O)NCCN2CCCC2)NS(=O)(=O)c2cc(Cl)cc(Cl)c2)OC2OC(C)(C)OC21 (stereo unspecified) | 4.79 µM | 6.41 µM |  |  | 3.76 µM | 3.45 µM and 2.85 µM |  | 3.68 µM and 3.73 µM | 4.95 µM | 2.4 µM | 2.5 µM | 1.64 µM | 1.76 µM and 1.31 µM | 1.86 µM and 1.89 µM | 2.63 µM | 1.9 µM and 1.42 µM | 3.56 µM and 2.86 µM |  |  | 
